Measured values published in patent US20250032627A1, “T[…] BASED UPON DRUG CONJUGATES” (priority 2023, published 2025).

Assays:
[1] = tested on: U87 glioblastoma cells; test: In vitro cytotoxicity, cell viability by SRB method; assay type: cell-based, human; settings: CPT compared with CPT-K3
Procedure: FIG. 10A is a table providing the IC50 of CPT and CPT-K3. FIG. 10B is a plot of cell viability (%) vs. concentration;
FIG. 10A is a table providing the IC50 of CPT and CPT-K3. FIG. 10B is a plot of cell viability (%) vs. concentration. In this example, cell viability (%) was determined using the SRB method.

[2] = Solubility and stability of CPT-K3 in borate buffer precursor solution; assay type: physicochemical
Text: Referring now to FIG. 3, CPT-K3 remains stable in a clear precursor solution.

Structure (SMILES) | cytotoxicity against the U87 glioblastoma cell line [1] | stability in borate buffer (time stable) ([2]; 75-mM borate buffer) | solubility in borate buffer ([2]; borate buffer)
CC[C@@]1(O)C(=O)OCc2c1cc1n(c2=O)Cc2cc3ccccc3nc2-1 [CPT, camptothecin, reference compound] | comparable cytotoxicity | – | –
CC[C@@]1(OC(=O)CCC(=O)N[C@@H](CCCCN)C(=O)N[C@@H](CCCCN)C(=O)N[C@@H](CCCCN)C(=O)O)C(=O)OCc2c1cc1n(c2=O)Cc2cc3ccccc3nc2-1 [CPT-K3] | comparable cytotoxicity | at least 24 hours | good solubility
